We go through one cell line from the supplement of paper PMC10307832.

What all share (experiment): relative viability (nuclei count vs DMSO), 5 days (fraction); higher = more cells survive
Compound in test [1]: CN[C@@H]1C[C@H]2O[C@@](C)([C@@H]1OC)n1c3ccccc3c3c4c(c5c6ccccc6n2c5c31)C(=O)NC4 [Staurosporine] + CCNC(=O)c1noc(-c2cc(C(C)C)c(O)cc2O)c1-c1ccc(CN2CCOCC2)cc1 [Luminespib] (partner 0.01 µM)
The method, boiled down: (§1)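 Lung cancer cell lines were pin-tool dosed in 1536-well plates on the day after seeding, with either a lone drug or a fixed anchor-drug dose plus five library-drug doses (not always all listed) in √10 steps. Nuclei were counted on 4× images after 5 days. Relative viability is the ratio of treated-well to vehicle-well nuclei counts, with each value a median of duplicate plates.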

Compound in the test “Staurosporine + Olaparib”: CN[C@@H]1C[C@H]2O[C@@](C)([C@@H]1OC)n1c3ccccc3c3c4c(c5c6ccccc6n2c5c31)C(=O)NC4 [Staurosporine] + O=C(c1cc(Cc2n[nH]c(=O)c3ccccc23)ccc1F)N1CCN(C(=O)C2CC2)CC1 [Olaparib] (partner 8 µM)
The method, boiled down: as §1

Compound in test [2]: O=c1[nH]cc(F)c(=O)[nH]1 [5-Fluorouracil] + CS(=O)(=O)CCNCc1ccc(-c2ccc3ncnc(Nc4ccc(OCc5cccc(F)c5)c(Cl)c4)c3c2)o1 [Lapatinib] (partner 2 µM)
The method, boiled down:
as §1

Compound in test [3]: O=c1[nH]cc(F)c(=O)[nH]1 [5-Fluorouracil] + Nc1ncn([C@H]2C[C@H](O)[C@@H](CO)O2)c(=O)n1 [Decitabine] (partner 2 µM)
The method, boiled down: as §1

For SW 1573, the relative viability in test [1] (first compound 0.005 µM) is 0.096; in test [1] (first compound 0.01581 µM) it was 0.0703; in test [1] (first compound 0.05 µM) it was 0.091; in test [1] (first compound 0.1581 µM), 0.0676; in test [1] (first compound 0.5 µM) it was 0.0574; with Staurosporine + Olaparib (first compound 0.005 µM) it was 0.189. The relative viability with Staurosporine + Olaparib (first compound 0.01581 µM) amounted to 0.124; with Staurosporine + Olaparib (first compound 0.05 µM) it was 0.121; with Staurosporine + Olaparib (first compound 0.1581 µM), 0.0899; with Staurosporine + Olaparib (first compound 0.5 µM), 0.063; in test [2] (first compound 0.02 µM), 1.09; in test [2] (first compound 0.2 µM) it was 1.32. The relative viability in test [2] (first compound 0.6325 µM) was determined as 0.546; in test [2] (first compound 2 µM) it was 0.885; in test [3] (first compound 0.02 µM), 0.619; in test [3] (first compound 0.2 µM), 0.505; in test [3] (first compound 0.6325 µM), 0.53; in test [3] (first compound 2 µM), 0.502.
